Results taken from patent US20020137929A1, “1 - (3-heterocyclylphenyl) isothiourea, -isourea, -guanidine and -amidine herbicidal agents” (Intellectual Property Department, BASF Aktiengesellschaft, priority 1998, published 2002).

Tests used:
[1] = test system: ZEAMX (Corn, Field); assay: Postemergence herbicidal evaluation; format: in vivo, Zea mays; settings: postemergence
Outline: (§1)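 Herbicidal effect was judged by eye on a 0–9 scale covering stand, vigor, deformity, size and chlorosis, compared with controls, four to five weeks after seedlings about two weeks old were sprayed (40 psi, ~0.0156–0.500 kg/ha).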

[2] = test system: CHEAL (Lambsquarters, Common); assay: Preemergence herbicidal evaluation; format: in vivo, Chenopodium album; settings: rated 4-5 weeks after treatment
Outline: (§2)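 Visual 0-9 rating vs control (stand, vigor, malformation, size, chlorosis, overall appearance), scored 4-5 wk after spraying. Seeded soil cups were treated preemergence with compound in aqueous acetone, ~0.0156-0.500 kg/ha equivalent.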

[3] = test system: GALAP (Galium); assay: Postemergence herbicidal evaluation; format: in vivo, Galium aparine; settings: postemergence
Outline: as §1

[4] = test system: CYPIR (Rice Flatsedge); assay: Preemergence weed control under flooded paddy conditions; format: in vivo, Cyperus iria; settings: rated 3-4 weeks after treatment
Outline: (§3)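 Ratings on a 0-9 visual scale cover stand, vigor, malformation, size, chlorosis and overall appearance relative to a control, taken three to four weeks post-treatment. Application was into flood water over freshly sown silt loam at roughly 0.0313 to 0.500 kg/ha.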

[5] = test system: ZEAMX (Corn, Field); assay: Preemergence herbicidal evaluation; format: in vivo, Zea mays; settings: rated 4-5 weeks after treatment
Outline: as §2

[6] = test system: AMBEL (Ragweed, Common); assay: Preemergence herbicidal evaluation; format: in vivo, Ambrosia artemisifolia; settings: rated 4-5 weeks after treatment
Outline: as §2

[7] = test system: ORYSAT (Rice, Tebonnet); assay: Preemergence herbicidal evaluation; format: in vivo, Oryza sativa, (L.) Tebonnet; settings: rated 4-5 weeks after treatment
Outline: as §2

[8] = test system: TRZAWR (Wheat, Winter, cv Riband); assay: Preemergence herbicidal evaluation; format: in vivo, Triticum aestivum; settings: rated 4-5 weeks after treatment
Outline: as §2

[9] = test system: CASOB (Sicklepod); assay: Postemergence herbicidal evaluation; format: in vivo, Cassia obtusifolia; settings: postemergence
Outline: as §1

[10] = test system: IPOHE (Morningglory, Ivyleaf); assay: Preemergence herbicidal evaluation; format: in vivo, Ipomoea hederacea; settings: rated 4-5 weeks after treatment
Outline: as §2

[11] = test system: CYPSE (Flatsedge); assay: Preemergence weed control under flooded paddy conditions; format: in vivo, Cyperus serotinus; settings: rated 3-4 weeks after treatment
Outline: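 Greenhouse paddy assay. Acetone/water (50/50 v/v) solutions dosed into flood water, equivalent to about 0.0313 to 0.500 kg/ha active ingredient, over seeds planted 0.5 cm deep in silt loam. Score: 0-9 visual, based on stand, vigor, malformation, size and chlorosis, 3 to 4 weeks after treatment.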

[12] = test system: ECHORC (Watergrass (Calif.)); assay: as above; format: in vivo, Echinochloa oryzoides; settings: rated 3-4 weeks after treatment
Outline: as §3

SMILES: CCOC(=O)CN1C(=O)C(C(=O)OC)SC1=Nc1cc(-n2c(=O)cc(C(F)(F)F)n(C)c2=O)c(F)cc1Cl (stereo not shown) [Compound 128, 5-Carboxy-2-{{2-chloro-5-[3,6-dihydro-3-methyl-2,6-dioxo-4-(trifluoromethyl)-1(2H)-pyrimidinyl]-4-fluorophenyl}imino}-4-oxo-3-thiazolidineacetic acid, 3-ethyl methyl ester]
- Herbicidal rating ZEAMX ([1]; rate 0.0156 kg/ha): 3.5
- Herbicidal rating ZEAMX ([1]; rate 0.0313 kg/ha): 4.0
- Herbicidal rating ZEAMX ([1]; rate 0.0625 kg/ha): 6.0
- Preemergence herbicidal rating CHEAL ([2]; rate 0.0156 kg/ha): 9.0
- Preemergence herbicidal rating CHEAL ([2]; rate 0.0313 kg/ha): 7.0
- Preemergence herbicidal rating CHEAL ([2]; rate 0.0625 kg/ha): 9.0
- Preemergence herbicidal rating CHEAL ([2]; rate 0.1250 kg/ha): 9.0
- Preemergence herbicidal rating CHEAL ([2]; rate 0.2500 kg/ha): 9.0
- Herbicidal rating GALAP ([3]; rate 0.0156 kg/ha): 1.0
- Herbicidal rating GALAP ([3]; rate 0.0313 kg/ha): 1.0
- Herbicidal rating GALAP ([3]; rate 0.0625 kg/ha): 3.0
- herbicidal effect rating, CYPIR ([4]; 0.0313 kg/ha): 0.0
- herbicidal effect rating, CYPIR ([4]; 0.0625 kg/ha): 4.0
- herbicidal effect rating, CYPIR ([4]; 0.1250 kg/ha): 4.0
- herbicidal effect rating, CYPIR ([4]; 0.2500 kg/ha): 4.0
- Preemergence herbicidal rating ZEAMX ([5]; rate 0.0156 kg/ha): 0.0
- Preemergence herbicidal rating ZEAMX ([5]; rate 0.0313 kg/ha): 0.0
- Preemergence herbicidal rating ZEAMX ([5]; rate 0.0625 kg/ha): 0.0
- Preemergence herbicidal rating ZEAMX ([5]; rate 0.1250 kg/ha): 0.0
- Preemergence herbicidal rating ZEAMX ([5]; rate 0.2500 kg/ha): 0.0
- Preemergence herbicidal rating AMBEL ([6]; rate 0.0156 kg/ha): 0.0
- Preemergence herbicidal rating AMBEL ([6]; rate 0.0313 kg/ha): 0.0
- Preemergence herbicidal rating AMBEL ([6]; rate 0.0625 kg/ha): 0.0
- Preemergence herbicidal rating AMBEL ([6]; rate 0.1250 kg/ha): 2.0
- Preemergence herbicidal rating AMBEL ([6]; rate 0.2500 kg/ha): 3.0
- Preemergence herbicidal rating ORYSAT ([7]; rate 0.0156 kg/ha): 0.0
- Preemergence herbicidal rating ORYSAT ([7]; rate 0.0313 kg/ha): 0.0
- Preemergence herbicidal rating ORYSAT ([7]; rate 0.0625 kg/ha): 0.0
- Preemergence herbicidal rating ORYSAT ([7]; rate 0.1250 kg/ha): 0.0
- Preemergence herbicidal rating ORYSAT ([7]; rate 0.2500 kg/ha): 0.0
- Preemergence herbicidal rating TRZAWR ([8]; rate 0.0156 kg/ha): 0.0
- Preemergence herbicidal rating TRZAWR ([8]; rate 0.0313 kg/ha): 0.0
- Preemergence herbicidal rating TRZAWR ([8]; rate 0.0625 kg/ha): 0.0
- Preemergence herbicidal rating TRZAWR ([8]; rate 0.1250 kg/ha): 0.0
- Preemergence herbicidal rating TRZAWR ([8]; rate 0.2500 kg/ha): 0.0
- Herbicidal rating CASOB ([9]; rate 0.0156 kg/ha): 1.0
- Herbicidal rating CASOB ([9]; rate 0.0313 kg/ha): 1.0
- Herbicidal rating CASOB ([9]; rate 0.0625 kg/ha): 7.0
- Preemergence herbicidal rating IPOHE ([10]; rate 0.0156 kg/ha): 0.0
- Preemergence herbicidal rating IPOHE ([10]; rate 0.0313 kg/ha): 0.0
- Preemergence herbicidal rating IPOHE ([10]; rate 0.0625 kg/ha): 4.0
- Preemergence herbicidal rating IPOHE ([10]; rate 0.1250 kg/ha): 9.0
- Preemergence herbicidal rating IPOHE ([10]; rate 0.2500 kg/ha): 7.0
- herbicidal effect rating, CYPSE ([11]; 0.0625 kg/ha): 0.0
- herbicidal effect rating, CYPSE ([11]; 0.2500 kg/ha): 3.0
- herbicidal effect rating, ECHORC ([12]; 0.0313 kg/ha): 5.0
- herbicidal effect rating, ECHORC ([12]; 0.0625 kg/ha): 7.0
- herbicidal effect rating, ECHORC ([12]; 0.1250 kg/ha): 7.0
- herbicidal effect rating, ECHORC ([12]; 0.2500 kg/ha): 9.0
